# Patent publication US20240389528A1, “PERFORMANCE GAIN IN ALS INHIBITOR HERBICIDE TOLERANT BETA VULGARIS PLANTS BY COMBINATION OF BEST FITTING ALS LARGE AND SMALL SUBUNITS” (BAYER AKTIENGESELLSCHAFT, priority 2021, published 2024)
# System: B. vulgaris plants comprising the BvALS_W569L allele
# Assay: Sensitivity of Beta vulgaris plants to ALS inhibitor herbicide (BvALS_W569L allele vs wild type allele)
# Type: in vivo
compound,measurement,value
COc1cc(OC)nc(NC(=O)NS(=O)(=O)c2cc(NC=O)ccc2C(=O)N(C)C)n1 [foramsulfuron],times less sensitive to the ALS inhibitor herbicide compared to B. vulgaris plants comprising a BvALS wild type allele,at least 2000 times
